Assays:
[1] = Relative lipophilicity of camptothecin drugs; conditions: among drugs of Table V
[2] = Excited-state lifetime of camptothecin; type: physicochemical; conditions: for excited state-lifetime: 37° C.
Protocol: The excited state-lifetime values of camptothecin free in solution was measured in PBS, glycerol, and methanol at 37° C. The lifetime values are 4.7 ns, 3.8 ns, and 3.5 ns, respectively. The average excited state-lifetime value of camptothecin when bound to DMPC liposome membrane is 3.7 ns. The measurements indicate that the excited-state lifetime of camptothecin is relatively insensitive to changes in solvent environment or to changes due to relocation of camptothecin from an aqueous environment to the lipid liposome membrane.
The picosecond fluorescence experiment were carried out with a Piridine I cavity dumped dye laser and frequency doubled light […]. The lifetime and correlation time were measured using frequency domain fluorometer operating up 10 GHz (Laczko et al., Rev. Sci. Instrum. 61: 2331, (1990)). The modulated exited light was obtained from the harmonic content of a laser pulse train with a repetition rate of 3.81 MHz and a pulse width of 5 ps. A mode locked […] Antares laser was used to pump the dye laser. The emission was observed through the cut of the filter […] by microchannel photomultiplier. The cross-correlation detection was done outside the photomultiplier tube, according to Laczko et al., Rev, Sci. Instrum. 61: 2331 (1990).

| Compound | relative lipophilicity [1] | excited state-lifetime ([2]; PBS) [ns] | average excited state-lifetime ([2]; bound to DMPC liposome membrane) [ns] | excited state-lifetime ([2]; glycerol) [ns] | excited state-lifetime ([2]; methanol) [ns] |
| --- | --- | --- | --- | --- | --- |
| CCC1(O)C(=O)OCc2c1cc1n(c2=O)Cc2cc3c(Cl)c4c(cc3nc2-1)OCO4 (centres unmarked) [9-chloro-10,11-methylenedioxycamptothecin] | most lipophilic |  |  |  |  |
| CC[C@@]1(O)C(=O)OCc2c1cc1n(c2=O)Cc2cc3ccccc3nc2-1 [camptothecin] |  | 4.7 | 3.7 | 3.8 | 3.5 |
